# From patent EP0714404B1, “ANTI-INFLAMMATORY PEPTIDES” (CURATIVE TECHNOLOGIES, INC., priority 1993, dated 1995)
# Like-named read-outs stand apart in the source and are kept apart here. Residues, ends and D or L forms follow the SMILES beside them.
# How the values were obtained:
# prostaglandin E2 (PGE2) = assay: carrageenan peritonitis, PGE2 content of peritoneal lavage fluid; assay type: in vivo, Mice; conditions: 60 mg/kg/day; 24 hr post-challenge
# Method: (§1) Mice (C57BL/6UAF, females, 12 weeks old) were implanted with Alzet mini pumps set to deliver 60 mg CT-112/kg/day. Six days post-implantation, the mice were challenged with an intraperitoneal injection of 0.3 ml of carrageenan in PBS (10 mg/ml). The peritoneal cavity was lavaged with 15 ml of Hank's Balanced Salt Solution (Ca^2+- and Mg^2+-free) at 24, 48 and 72 hr post-challenge. The lavage fluid was centrifuged (500 g, 5 min), fixed with LeukoStat fixative and stained with LeukoStat staining solution. The slides were analyzed under a microscope for the different types of inflammatory cells, such as macrophages, lymphocytes and neutrophils. At the 48-hr time point, 5 control mice were also lavaged.
# (§2) In a separate study, the peritoneal lavage fluid was analyzed for total leukotriene B4 (LTB4) and prostaglandin E2 (PGE2) content at 24 hr post-challenge (Griswold et al., 1991, Biochem. Pharmacol. 42(4):825-831).
# [1] = tested on: collagen-induced arthritis; assay type: in vivo, Mice
# Method: Mice (DBA/1, 10-12 weeks old, Jackson Laboratories) were randomly assigned to one of 3 groups of […]. CT-112 (SEQ. ID NO: 1) was prepared for injection by dissolving in sterile PBS. CT-112 (SEQ. ID NO: 1) was administered daily according to the following schedule: • a) Control animals (0.1 ml of sterile PBS) (7 mice); • b) Low dose CT-112 (0.1 ml sterile PBS containing 0.25 mg CT-112 at 10 mg/kg) (8 mice); and • c) High dose CT-112 (0.1 ml sterile PBS containing 2.5 mg of CT-112 at 100 mg/kg) (8 mice). Three days after initial dosing with CT-112 (SEQ. ID NO: 1), all mice were injected intradermally at the base of the tail with 100 µg of bovine type-II collagen in Freund's complete adjuvant. Mice were monitored daily for the onset of disease, and weighed twice weekly with overall health status noted. Arthritis-affected animals were clinically assessed 5 times per week until 10 weeks post-immunization. Paw measurements were taken 3 times per week. Mice lacking signs of arthritis 10 weeks post-immunization were considered disease-free. All mice were pre-bled prior to the start of the trial, subsequently again at 2 and 4 weeks post-immunization, again at the onset of CIA, and finally at the termination of the study. Sera were separated and stored at -80°C. ELISA assays were performed to determine anti-collagen antibody concentrations. Spleen and lymph nodes were removed at sacrifice, and single cell suspensions prepared therefrom. Mitogen responses to Con A and LPS, as well as antigen-specific responses to type-II collagen, were determined. Appropriate statistical comparisons (Chi square, Student's T-test and non-parametric median comparisons) were performed using SPSS/PC software to assess the influence of CT-112 (SEQ. ID NO: 1) at both low and high doses on the incidence, onset, severity and progression of collagen-induced arthritis, the antibody response to collagen, T-cell and B-cell mitogen responses, and T-cell specific responses to type-II collagen.
# neutrophils = assay: neutrophil chemotaxis to leukotriene B4 (Neuroprobe chambers); assay type: cell-based; conditions: fluorescence at 530 nm, 1 hr; FIGURE 4
# Method: The ability of CT-112 (SEQ. ID NO: 1) to inhibit chemotaxis of neutrophils in response to a variety of agents was assessed using Neuroprobe chemotaxis chambers. For these assays, neutrophils were resuspended in Hank's balanced salt solution with Ca^2+ and Mg^2+ to give a 5 x 10^6 cells/ml suspension after the cells were labeled with 1',7'-bis(2-carboxyethyl)-5-(6)-carboxyfluorescein. The neutrophils were exposed to CT-112 (SEQ. ID NO: 1) for approximately 15 min prior to addition to the chemotaxis chambers. CT-112 (SEQ. ID NO: 1) was present in both the top and bottom of the chambers, and the chemoattractant, either f-Met-Leu-Phe, leukotriene B4 or interleukin-8, was added to the bottom of chamber. Cells which had migrated through the membrane were determined by fluorescence at 530 nm at 1 hr after initiation of the assay.
# leukotriene B4 (LTB4) = assay: carrageenan peritonitis, LTB4 content of peritoneal lavage fluid; assay type: in vivo, Mice; conditions: 60 mg/kg/day; 24 hr post-challenge
# Method: as §1, §2
smiles,measurement,setting,value
"CC(C)[C@H](NC(=O)[C@H](CCC(N)=O)NC(=O)[C@H](CO)NC(=O)[C@@H](NC(=O)[C@@H](N)[C@@H](C)O)[C@@H](C)O)C(=O)N[C@@H](CCCNC(=N)N)C(=O)N1CCC[C@H]1C(=O)N[C@@H](CCCNC(=N)N)C(=O)O [CT-112, Thr-Thr-Ser-Gln-Val-Arg-Pro-Arg] (H-TTSQVRPR-OH)",PGE2,prostaglandin E2 (PGE2),13.1 ± 6.9(5) pg in peritoneal lavage
same,Antibody reduction (anti-collagen antibody titer in mouse serum),"[1]; 4 wks post-immunization, high dose group, p=0.028",statistically significant
same,effects on synovitis and pannus,[1]; both high and low doses,not significant
same,disease-induced joint erosion (histopathology),"[1]; both high and low doses, FIGURE 13",reducing
same,disease-induced loss of joint architecture (histopathology),"[1]; both high and low doses, p ≤ 0.05, FIGURE 13",significantly reducing
same,Spleen cell response to Con A and to LPS,[1]; cells from treated mice,neither immunosuppression nor immunoactivation
same,final incidence of CIA,"[1]; high dose, 100 mg/kg daily",50%
same,onset of arthritis,"[1]; low (10 mg/kg) and high (100 mg/kg) daily doses, compared to control mice",somewhat retarded
same,antibody titers at the conclusion of the trial,[1]; low dose group vs control mice,significantly higher
same,final incidence of CIA,"[1]; low dose, 10 mg/kg daily",62.5%
same,involved paws characterized as in remission at the conclusion of the trial,"[1]; low dose, 10 mg/kg daily",25%
same,progression of arthritis to paws,"[1]; low dose, 10 mg/kg daily, p=0.035 vs control",significantly fewer paws
same,Maximum paw swelling,"[1]; mouse, in vivo",not influenced
same,weight gain,"[1]; mouse, in vivo",gained weight at the same rate
same,Cellular responses to mitogens and antigen (type-II collagen) in lymph node cells,[1]; treated mice vs control animals,similar
same,chemotactic migration of neutrophils to LTB4,neutrophils,effectively inhibited
same,LTB4,leukotriene B4 (LTB4),16.8 ± 11.5(5) pg in peritoneal lavage
